Values joined by “and” are separate entries in the source; they are usually repeats but may differ in a detail not shown here. Equal entries are not always repeated.
Columns and labels:
[1] = target: T1, human 5-HT2A (h5-HT2A) receptor (Homo sapiens, UniProt P28223); assay: FLIPR assay, human 5-HT2A, agonist mode; assay type: cell-based
T1 construct: expressed in transfected cells; grown under G418 and hygromycin B selection
Experimental: I. Assessment of the Effect of Exemplary Compounds of Formula I Targeting on Human 5-HT2A (h5-HT2A) Receptor Under Agonist Mode:
I.c. Experimental Methods and Procedures: • 1. Cells were cultured in cell culture medium (DMEM containing 10% FBS, 1×penicillin-streptomycin 300 μg/ml G418 and 100 μg/ml hygromycin B) at 37° C., 5% (v/v) CO2. • 2. One day before the assays, the cells were detached using TrypLE™ Express and cells were counted using cell counter. Only cells with >85% viability were used for the assay. • 3. 20000 cells/well were seeded in 30 μl/well culture medium to a 384-well cell plate and cells were incubated overnight at 37° C., 5% (v/v) CO2. • 4. On the assay day, 2×dye solution was prepared following the manual of the FLIPR® Calcium 6 Assay Kit: i. The dye was diluted with assay buffer (20 mM HEPES in 1×HBSS, PH7.4); ii. Probenecid was added to the final concentration of 5 mM; iii. Vortex vigorously for 1-2 minutes. • 5. Medium was removed from cell plate by flicking the cell plate on towel papers. • 6. 10 μl of assay buffer and 10 μl of 2×dye solution was added to each well of the cell plate. • 7. The cell plate was placed on plate shaker, the plate was agitated at 600 rpm for 2 minutes. The plate was incubated at 37° C. for 2 hours followed by additional 15-minute incubation at 25° C. • 8. 3×compound in assay buffer was prepared: a. Reference compounds were diluted to required concentration with DMSO. The compounds were added to a 384-well compound plate; b. Serial dilutions were performed; c. 10 mM test compounds were added to the compound plate, and 3-fold serial dilutions were performed. d. Transfer 60 nl/well of compounds from source plate to a 384-well compound plate (Corning, 3657) by using an Echo; e. Add 20 μl/well assay buffer to the compound plate; f. Mix the plate on plate shaker for 2 mins; • 9. The cell plate, compound plate and tips were put into FLIPR, 10 μl of 3× compound was transferred to the cell plate per well with FLIPR.
• i. The normalized fluorescence reading (RFU) was calculated as shown below, where Fmax and Fmin stand for maximum and minimum of calcium signal during defined time window: RFU=Fmax−Fmin. • ii. Calculate the percentage activation using following equation:
[formula] • Iii. Calculate EC50 by fitting % activation against log of compound concentrations with Hill equation using XLfit.

[2] = Liver microsomes stability, human; conditions: for Predicted hepatic CL / Remaining Percentage / CLint scaled at 2 μM / half-life at 2 μM / microsomal CLint at 2 μM: human; for CLint scaled at 2 μM / half-life at 2 μM / microsomal CLint at 2 μM: pooled human liver microsomes
[3] = Liver microsomes stability, mouse; conditions: for CLint scaled at 2 μM / half-life at 2 μM / microsomal CLint at 2 μM: male, microsomes
[4] = Liver microsomes stability, rat; conditions: for CLint scaled at 2 μM / half-life at 2 μM / microsomal CLint at 2 μM: rat liver microsomes
Male, C57BL/6J mice = assay: Mouse head twitch; assay type: in vivo; conditions: for other behavioural and somatic signs accompanying head twitches: psilocybin at 3 and 10 mg/kg, 5-MeO DMT over 3-30 mg/kg
Experimental: The effect of different doses of representative compounds of Formula I are evaluated on head-twitch response (HTR) and other behavioural responses as behavior-based models of psychedelic activity.
Male, C57BL/6J mice (body weight range 20-30 g) were dosed with the appropriate dose of test article, and following a 1-minute pre-treatment time, placed in individual observation chambers. Animals were visually assessed for the incidence head twitches continuously over a 1 hr period. Head twitches were defined as a rapid jerk of the head which was not elicited by an external tactile stimulus (Come and Pickering, Psychopharmacologia, 1967, 11(1): 65-78). Each head twitch was individually counted by a trained observer, and the data expressed as the mean±SEM of 6-10 mice per group. Mice were used in a single experiment only.

T1 sequence (P28223 whole entry): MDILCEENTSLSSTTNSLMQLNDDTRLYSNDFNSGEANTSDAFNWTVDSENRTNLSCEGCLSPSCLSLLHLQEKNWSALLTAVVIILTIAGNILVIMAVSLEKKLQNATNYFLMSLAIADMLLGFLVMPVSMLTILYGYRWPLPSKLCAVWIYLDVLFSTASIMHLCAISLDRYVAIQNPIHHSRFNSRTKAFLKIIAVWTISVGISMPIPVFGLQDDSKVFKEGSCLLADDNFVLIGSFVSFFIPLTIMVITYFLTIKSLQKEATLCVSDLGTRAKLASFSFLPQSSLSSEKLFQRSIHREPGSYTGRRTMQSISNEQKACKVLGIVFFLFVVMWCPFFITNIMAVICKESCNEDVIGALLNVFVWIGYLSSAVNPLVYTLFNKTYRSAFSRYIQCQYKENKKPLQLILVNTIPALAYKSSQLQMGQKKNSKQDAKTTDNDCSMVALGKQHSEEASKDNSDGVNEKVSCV

## COc1cccc2c1NCC2C[C@H]1CCCN1C (stereo partly drawn) [(R)-I-95, 7-Methoxy-3-(((R)-I-methylpyrrolidin-2-yl)methyl)indoline]
[1]
  5-HT2A (FLIPR) RFU@10 μM: 321 RFU

## COc1cc2c(cc1OC)C(C[C@H]1CCCN1C)CN2 (stereo partly drawn) [(R) I-81, 5,6-Dimethoxy-3-(((R)-I-methylpyrrolidin-2-yl)methyl)indoline]
[1]
  5-HT2A (FLIPR) RFU@10 μM: 294 RFU

## COc1cccc2c1C(C[C@H]1CCCN1C)CN2 (stereo partly drawn) [(R)-I-94, 4-Methoxy-3-(((R)-I-methylpyrrolidin-2-yl)methyl)indoline]
[2]
  Predicted hepatic CL: 5.63 mL/min/kg
  CLint scaled at 2 μM: 7.74 mL/min/kg
  half-life at 2 μM: 3.74 h
  microsomal CLint at 2 μM: 6.17 µL/min/mg
[2]; With NADPH, 0 min
  Remaining Percentage: 100.00%
[2]; With NADPH, 30 min
  Remaining Percentage: 100.93%
[2]; With NADPH, 60 min
  Remaining Percentage: 83.11%
[2]; Without NADPH, 0 min
  Remaining Percentage: 100.00%
[2]; Without NADPH, 30 min
  Remaining Percentage: 108.38%
[2]; Without NADPH, 60 min
  Remaining Percentage: 98.20%
[1]
  EC50: 9 nM
  5-HT2A (FLIPR) RFU@10 μM: 545 RFU
[3]
  Predicted hepatic CL: >84.35 mL/min/kg
  CLint scaled at 2 μM: > 1340 mL/min/kg
  half-life at 2 μM: < 0.0752 h
  microsomal CLint at 2 μM: > 307 µL/min/mg
[3]; With NADPH, 0 min
  Remaining Percentage: 100.00%
[3]; With NADPH, 30 min
  Remaining Percentage: 0.84%
[3]; With NADPH, 60 min
  Remaining Percentage: 0.29%
[3]; Without NADPH, 0 min
  Remaining Percentage: 100.00%
[3]; Without NADPH, 30 min
  Remaining Percentage: 109.64%
[3]; Without NADPH, 60 min
  Remaining Percentage: 106.02%
[4]
  Predicted hepatic CL: 19.77 mL/min/kg
  CLint scaled at 2 μM: 30.8 mL/min/kg
  half-life at 2 μM: 1.34 h
  microsomal CLint at 2 μM: 17.2 µL/min/mg
[4]; With NADPH, 0 min
  Remaining Percentage: 100.00%
[4]; With NADPH, 30 min
  Remaining Percentage: 84.38%
[4]; With NADPH, 60 min
  Remaining Percentage: 59.71%
[4]; Without NADPH, 0 min
  Remaining Percentage: 100.00%
[4]; Without NADPH, 30 min
  Remaining Percentage: 104.88%
[4]; Without NADPH, 60 min
  Remaining Percentage: 96.34%

## COc1ccc2[nH]cc(CCN(C)C)c2c1 [Compound 5-MeO-DMT]
Male, C57BL/6J mice; 1 mg/kg SC
  head twitch response (mean head twitches over 1 hr): 3.0
Male, C57BL/6J mice; 3 mg/kg SC
  head twitch response (mean head twitches over 1 hr): 4.2
Male, C57BL/6J mice; 10 mg/kg SC
  head twitch response (mean head twitches over 1 hr): 7.8
Male, C57BL/6J mice; 30 mg/kg SC
  head twitch response (mean head twitches over 1 hr): 12.3
Male, C57BL/6J mice; SC, psilocybin 0.1-10, 5-MeO DMT 1-30, (R)-I-54 1-60 mg/kg
  head twitch response over the dose range tested: monotonic increase in head twitches
Male, C57BL/6J mice; SC
  other behavioural and somatic signs accompanying head twitches: other behavioural signs associated with 5-HT syndrome (forepaw treading, straub tail, body twitches, backwards walking) emerged

## COc1ccc2c(c1)C(C[C@@H]1CCCN1C)CN2 (stereo partly drawn) [(S)-I-54, 5-Methoxy-3-(((S)-I-methylpyrrolidin-2-yl)methyl)indoline]
[1]
  5-HT2A (FLIPR) RFU@10 μM: 444 RFU

## [2H]C([2H])([2H])N1CCC[C@@H]1CC1CNc2cc(OC)c(OC)cc21 (stereo partly drawn) [(R)-I-82, 5,6-dimethoxy-3-(((R)-I-(methyl-d3)pyrrolidin-2-yl)methyl)indoline]
[1]
  EC50: 1560 nM
  5-HT2A (FLIPR) RFU@10 μM: 479 RFU

## COc1ccc2c(c1)C(C[C@H]1CCCN1)CN2 (stereo partly drawn) [(R)-I-165, 5-Methoxy-3-(((R)-pyrrolidin-2-yl)methyl)indoline]
[2]
  Predicted hepatic CL: 0.00 mL/min/kg
[2]; human liver microsomes, 2 μM
  T1/2: ∞
[2]; With NADPH, 0 min
  Remaining Percentage: 100.00%
[2]; With NADPH, 30 min
  Remaining Percentage: 111.72%
[2]; With NADPH, 60 min
  Remaining Percentage: 114.92%
[2]; Without NADPH, 0 min
  Remaining Percentage: 100.00%
[2]; Without NADPH, 30 min
  Remaining Percentage: 99.07%
[2]; Without NADPH, 60 min
  Remaining Percentage: 85.51%
[1]
  EC50: 57 nM
  5-HT2A (FLIPR) RFU@10 μM: 1,318 RFU
[3]
  Predicted hepatic CL: 37.78 mL/min/kg
  CLint scaled at 2 μM: 65.1 mL/min/kg
  half-life at 2 μM: 1.55 h
  microsomal CLint at 2 μM: 14.9 µL/min/mg
[3]; With NADPH, 0 min
  Remaining Percentage: 100.00%
[3]; With NADPH, 30 min
  Remaining Percentage: 90.44%
[3]; With NADPH, 60 min
  Remaining Percentage: 63.99%
[3]; Without NADPH, 0 min
  Remaining Percentage: 100.00%
[3]; Without NADPH, 30 min
  Remaining Percentage: 100.70%
[3]; Without NADPH, 60 min
  Remaining Percentage: 117.77%
[4]
  Predicted hepatic CL: 31.82 mL/min/kg
  CLint scaled at 2 μM: 75.1 mL/min/kg
  half-life at 2 μM: 0.551 h
  microsomal CLint at 2 μM: 41.9 µL/min/mg
[4]; With NADPH, 0 min
  Remaining Percentage: 100.00%
[4]; With NADPH, 30 min
  Remaining Percentage: 53.50%
[4]; With NADPH, 60 min
  Remaining Percentage: 28.43%
[4]; Without NADPH, 0 min
  Remaining Percentage: 100.00%
[4]; Without NADPH, 30 min
  Remaining Percentage: 106.00%
[4]; Without NADPH, 60 min
  Remaining Percentage: 119.73%

## CN(C)CCc1c[nH]c2ccccc12 [DMT, N,N-dimethyltryptamine, reference compound]
[1]
  5-HT2A (FLIPR) RFU@10 μM: 381 RFU

## CN1CCC[C@@H]1C[C@H]1CNc2ccc(F)cc21 [(R),(R)-I-47, (R)-5-fluoro-3-(((R)-I-methylpyrrolidin-2-yl)methyl)indoline]
[2]
  Predicted hepatic CL: 2.74 mL/min/kg
  CLint scaled at 2 μM: 3.15 mL/min/kg
  half-life at 2 μM: 9.19 h
  microsomal CLint at 2 μM: 2.51 µL/min/mg
[2]; With NADPH, 0 min
  Remaining Percentage: 100.00%
[2]; With NADPH, 30 min
  Remaining Percentage: 108.74%
[2]; With NADPH, 60 min
  Remaining Percentage: 92.73%
[2]; Without NADPH, 0 min
  Remaining Percentage: 100.00%
[2]; Without NADPH, 30 min
  Remaining Percentage: 102.35%
[2]; Without NADPH, 60 min
  Remaining Percentage: 95.13%
[1]
  EC50: 91 nM
  5-HT2A (FLIPR) RFU@10 μM: 787 RFU
[3]
  Predicted hepatic CL: 13.24 mL/min/kg
  CLint scaled at 2 μM: 15.5 mL/min/kg
  half-life at 2 μM: 6.51 h
  microsomal CLint at 2 μM: 3.55 µL/min/mg
[3]; With NADPH, 0 min
  Remaining Percentage: 100.00%
[3]; With NADPH, 30 min
  Remaining Percentage: 114.03%
[3]; With NADPH, 60 min
  Remaining Percentage: 89.90%
[3]; Without NADPH, 0 min
  Remaining Percentage: 100.00%
[3]; Without NADPH, 30 min
  Remaining Percentage: 114.71%
[3]; Without NADPH, 60 min
  Remaining Percentage: 87.16%
[4]
  Predicted hepatic CL: 45.31 mL/min/kg
  CLint scaled at 2 μM: 253 mL/min/kg
  half-life at 2 μM: 0.164 h
  microsomal CLint at 2 μM: 141 µL/min/mg
[4]; With NADPH, 0 min
  Remaining Percentage: 100.00%
[4]; With NADPH, 30 min
  Remaining Percentage: 5.12%
[4]; With NADPH, 60 min
  Remaining Percentage: 1.45%
[4]; Without NADPH, 0 min
  Remaining Percentage: 100.00%
[4]; Without NADPH, 30 min
  Remaining Percentage: 108.30%
[4]; Without NADPH, 60 min
  Remaining Percentage: 100.00%

## CN(C)CCc1c[nH]c2cccc(OP(=O)(O)O)c12 [Psilocybin]
Male, C57BL/6J mice; 0.1 mg/kg SC
  head twitch response (mean head twitches over 1 hr): 4.8
Male, C57BL/6J mice; 0.3 mg/kg SC
  head twitch response (mean head twitches over 1 hr): 6.3
Male, C57BL/6J mice; 1 mg/kg SC
  head twitch response (mean head twitches over 1 hr): 16.3
Male, C57BL/6J mice; 3 mg/kg SC
  head twitch response (mean head twitches over 1 hr): 7.8
Male, C57BL/6J mice; 10 mg/kg SC
  head twitch response (mean head twitches over 1 hr): 5.5
Male, C57BL/6J mice; SC
  dose of peak head twitch response: 1 mg/kg
  other behavioural and somatic signs accompanying head twitches: decreased locomotion and decreased core body temperature

## CN(C)CCc1c[nH]c2cccc(O)c12 [Psilocin, reference compound]
[1]
  5-HT2A (FLIPR) RFU@10 μM: 416 RFU and 308 RFU

## CN1CCC[C@@H]1C[C@@H]1CNc2ccc(F)cc21 [(S),(R)-I-47, (S)-5-fluoro-3-(((R)-I-methylpyrrolidin-2-yl)methyl)indoline]
[1]
  EC50: 76 nM
  5-HT2A (FLIPR) RFU@10 μM: 797 RFU

— patent US20260083703A1, “INDOLINE DERIVATIVES AS SEROTONERGIC AGENTS USEFUL FOR THE TREATMENT OF DISORDERS RELATED THERETO” (MINDSET PHARMA INC., priority 2022, published 2026)
